Results published in paper PMC11081522, “In silico identification of a novel Cdc2‐like kinase 2 (CLK2) inhibitor in triple negative breast cancer” (Protein Science : A Publication of the Protein Society, 2024).
Like-named read-outs stand apart in the source and are kept apart here.

Columns and labels:
Type in all cases: biochemical
[1] = target: T1, CLK2 (Cdc2-like kinase 2) (Homo sapiens, UniProt P49760); assay: Z'LYTE FRET peptide kinase assay
T1 construct: commercial enzyme of Thermo Fisher SelectScreen service
T1 sequence (P49760 whole entry): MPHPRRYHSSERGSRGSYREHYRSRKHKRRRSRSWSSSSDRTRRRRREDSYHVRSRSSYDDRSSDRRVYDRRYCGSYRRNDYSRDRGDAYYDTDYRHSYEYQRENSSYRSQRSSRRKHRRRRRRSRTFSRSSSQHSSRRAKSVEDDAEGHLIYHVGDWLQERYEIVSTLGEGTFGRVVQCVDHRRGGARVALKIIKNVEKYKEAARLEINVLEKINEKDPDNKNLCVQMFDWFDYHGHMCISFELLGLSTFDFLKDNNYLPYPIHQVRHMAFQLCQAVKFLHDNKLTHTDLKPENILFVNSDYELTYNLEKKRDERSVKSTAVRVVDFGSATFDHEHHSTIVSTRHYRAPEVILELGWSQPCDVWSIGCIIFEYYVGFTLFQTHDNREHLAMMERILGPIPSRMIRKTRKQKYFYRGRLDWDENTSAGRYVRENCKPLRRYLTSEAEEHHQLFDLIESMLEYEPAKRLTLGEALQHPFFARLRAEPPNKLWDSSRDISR
From the text: Z'LYTE FRET peptide kinase assay on CLK2 (Cdc2-like kinase 2)

CLK3 = target: T2, CLK3 (Homo sapiens, UniProt P49761); assay: kinase selectivity panel
T2 construct: kinase selectivity panel enzyme
T2 sequence (P49761 whole entry): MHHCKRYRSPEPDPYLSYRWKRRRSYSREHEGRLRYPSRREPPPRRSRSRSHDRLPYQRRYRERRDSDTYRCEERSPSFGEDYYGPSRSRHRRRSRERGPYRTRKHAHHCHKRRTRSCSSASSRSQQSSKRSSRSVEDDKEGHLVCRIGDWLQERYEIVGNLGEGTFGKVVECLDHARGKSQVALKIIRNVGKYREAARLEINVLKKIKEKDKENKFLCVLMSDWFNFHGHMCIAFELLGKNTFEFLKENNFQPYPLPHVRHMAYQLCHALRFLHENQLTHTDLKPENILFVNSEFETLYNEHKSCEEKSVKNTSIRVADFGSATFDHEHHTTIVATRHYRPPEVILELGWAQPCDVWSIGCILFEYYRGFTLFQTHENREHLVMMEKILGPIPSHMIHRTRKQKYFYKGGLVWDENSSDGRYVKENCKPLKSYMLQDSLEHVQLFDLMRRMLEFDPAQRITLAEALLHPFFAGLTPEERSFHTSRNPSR

[2] = target: T3, TTK (Threonine tyrosine kinase; Monopolar Spindle 1, Mps1) (Homo sapiens, UniProt P33981); assay: kinase selectivity panel
T3 construct: kinase selectivity panel enzyme
T3 sequence (P33981 1-857): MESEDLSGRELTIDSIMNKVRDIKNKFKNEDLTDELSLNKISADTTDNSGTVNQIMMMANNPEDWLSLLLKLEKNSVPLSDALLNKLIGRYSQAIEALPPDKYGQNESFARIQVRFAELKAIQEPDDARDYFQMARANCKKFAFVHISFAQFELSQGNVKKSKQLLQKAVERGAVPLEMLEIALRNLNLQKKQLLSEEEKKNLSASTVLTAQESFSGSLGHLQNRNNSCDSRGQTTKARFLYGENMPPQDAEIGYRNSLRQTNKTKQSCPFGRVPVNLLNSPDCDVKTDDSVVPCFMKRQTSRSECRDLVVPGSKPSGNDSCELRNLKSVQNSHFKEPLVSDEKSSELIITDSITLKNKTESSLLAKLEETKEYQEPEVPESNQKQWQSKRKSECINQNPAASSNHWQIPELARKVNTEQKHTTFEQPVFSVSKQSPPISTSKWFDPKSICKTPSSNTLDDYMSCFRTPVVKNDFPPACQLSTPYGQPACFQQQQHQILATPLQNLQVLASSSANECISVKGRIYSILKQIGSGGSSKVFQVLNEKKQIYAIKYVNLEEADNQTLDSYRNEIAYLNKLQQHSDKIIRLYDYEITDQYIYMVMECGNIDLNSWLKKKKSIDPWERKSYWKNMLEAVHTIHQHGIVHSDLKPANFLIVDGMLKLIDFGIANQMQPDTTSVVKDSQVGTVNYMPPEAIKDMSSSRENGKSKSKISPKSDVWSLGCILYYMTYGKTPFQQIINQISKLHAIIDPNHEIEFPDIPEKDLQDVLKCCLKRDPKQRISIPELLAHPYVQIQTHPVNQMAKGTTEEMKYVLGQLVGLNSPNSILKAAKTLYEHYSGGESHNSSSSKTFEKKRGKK

IC50 [1] [nM] | inhibition at 1 µM (CLK3) [%] | inhibition at 1 µM [2] [%] | IC50 ([1]; ATP and peptide substrate, 1% DMSO, room temperature, 60 min) [nM] | SMILES
2240 |  |  |  | Nc1ncnc2oc(-c3ccccc3)c(-c3ccccc3)c12 [compound 153298, 153298]
620 | 46 | 43 |  | CC(c1ccccc1)n1c2ccccc2c2c(N)ncnc21 (centres unmarked) [compound 670551, Compound 670551]
 |  |  | 1330 | CSc1nc(Cl)cc(Sc2nc(N)nc3nc[nH]c23)n1 [compound 51564, 51564]
